One experiment deals with T1, Recombinant human DDR2 (Homo sapiens, UniProt Q16832).
T1 construct: DDR2 (1.75 nM; aa427-855 containing a GST tag)
T1 sequence (Q16832 427-855): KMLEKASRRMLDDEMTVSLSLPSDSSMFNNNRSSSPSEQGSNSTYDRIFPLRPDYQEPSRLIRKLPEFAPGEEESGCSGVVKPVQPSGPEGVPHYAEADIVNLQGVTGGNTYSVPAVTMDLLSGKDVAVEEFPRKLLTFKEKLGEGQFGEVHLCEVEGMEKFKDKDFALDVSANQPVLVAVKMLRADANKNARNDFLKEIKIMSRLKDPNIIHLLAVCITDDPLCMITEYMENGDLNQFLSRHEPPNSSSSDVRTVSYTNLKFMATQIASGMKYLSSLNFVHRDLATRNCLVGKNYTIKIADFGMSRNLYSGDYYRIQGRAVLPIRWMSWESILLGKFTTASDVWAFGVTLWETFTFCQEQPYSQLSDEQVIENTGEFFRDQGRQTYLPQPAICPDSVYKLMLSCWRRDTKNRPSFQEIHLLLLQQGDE
As to the kind of experiment: LanthaScreen Eu Kinase Binding Assay, DDR2. Particulars: recombinant human DDR2 (1.75 nM; aa427-855, GST tag), Kinase Tracer 178 10 nM, time-resolved fluorescence, at least two independent replicates; read-out: DDR2 pIC50 (converted). As for the experimental part:
(§1) DDR1 and DDR2 Biochemical Assay Method
(§2) The capacity of compounds to bind to DDR1 and DDR2 was quantified using a LanthaScreen Eu Kinase Binding Assay. Recombinant human DDR1 (2.5 nM; aa440-876 containing a GST tag) and DDR2 (1.75 nM; aa427-855 containing a GST tag) were diluted in assay buffer (50 mM HEPES pH7.3, 10 mM MgCl2, 1 mM EGTA and 0.01% Tween) with various concentrations of compound in a 384-well plate and a volume of 5 uL. After a 30-minute incubation at room temperature, 2.5 uL of Eu-anti GST antibody (diluted to 1 nM in assay buffer) plus Kinase Tracer 178 (diluted in assay buffer to 5 nM for DDR1 and 10 nM for DDR2) were added to the plate. Following 60-minute incubation at room temperature, time-resolved fluorescence was measured on a BMG Labtech PHERAstar plate reader. DMSO (1%) and reference compound (1 μM) were used to generate the Max and Min assay signals, respectively. Data was analysed using a four-parameter logistic model to calculate IC50 values, with at least two independent replicates were performed for each compound.
In general terms: In TR-FRET formats the signal depends on donor and acceptor labels being close together.

Another experiment deals with T2, Recombinant human DDR1 (Homo sapiens, UniProt Q08345).
T2 construct: Recombinant human DDR1 (2.5 nM; aa440-876 containing a GST tag)
T2 sequence (Q08345 440-876 isoform Q08345-2): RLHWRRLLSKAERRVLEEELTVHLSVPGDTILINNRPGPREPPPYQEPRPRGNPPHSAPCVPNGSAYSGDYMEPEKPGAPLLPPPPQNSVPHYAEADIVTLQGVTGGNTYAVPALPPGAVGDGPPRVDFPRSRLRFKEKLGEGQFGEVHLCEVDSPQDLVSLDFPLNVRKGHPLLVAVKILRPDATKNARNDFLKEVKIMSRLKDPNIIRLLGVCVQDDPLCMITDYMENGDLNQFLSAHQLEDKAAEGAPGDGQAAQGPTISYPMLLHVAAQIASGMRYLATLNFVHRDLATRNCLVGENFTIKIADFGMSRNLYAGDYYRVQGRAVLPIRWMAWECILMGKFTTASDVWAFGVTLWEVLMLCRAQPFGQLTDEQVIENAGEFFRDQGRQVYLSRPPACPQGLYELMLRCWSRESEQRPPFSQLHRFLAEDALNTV
Briefly: LanthaScreen Eu Kinase Binding Assay, DDR1. The note with it: recombinant human DDR1 (2.5 nM; aa440-876, GST tag), Kinase Tracer 178 5 nM, time-resolved fluorescence, at least two independent replicates; read-out: DDR1 pIC50 (converted). As for the experimental part: as §1, §2

The values that follow come from US12692247B2, “Phenyl- and pyridopyrazole derivatives as inhibitors of DDR1” (Redx Pharma Limited, priority 2021, dated 2026).

Consider `CC(C(=O)NCC(F)(F)F)n1ccc2cccc(Nc3ccc4c(cnn4C)c3)c2c1=O` (centres unmarked) [Example 51, 2-[8-[(1-methylindazol-5-yl)amino]-1-oxo-2-isoquinolyl]-N-(2,2,2-trifluoroethyl) propanamide], for which the IC50 on Recombinant human DDR2 and on Recombinant human DDR1 was at least 1 µM throughout.
Turning to `O=C(Cn1ccc2cccc(Nc3cc(Cl)c4[nH]ncc4c3)c2c1=O)NCC(F)(F)F` [Example 52, 2-[8-[(7-chloro-1H-indazol-5-yl)amino]-1-oxo-2-isoquinolyl]-N-(2,2,2-trifluoroethyl) acetamide], the IC50 on Recombinant human DDR2 was 0.01 to 0.1 µM; on Recombinant human DDR1 it was below 0.01 µM.
`Cn1ncc2cc(Nc3cccc4ccn(CC(=O)NCC(C)(C)O)c(=O)c34)ccc21` [Example 54, N-(2-hydroxy-2-methyl-propyl)-2-[8-[(1-methylindazol-5-yl)amino]-1-oxo-2-isoquinolyl]acetamide]: the IC50 on Recombinant human DDR2 was at least 1 µM; at Recombinant human DDR1, 0.1 to 1 µM.
Take `COc1ccc(NC(=O)Cn2ccc3cccc(Nc4ccc5c(cnn5C)c4)c3c2=O)cc1` [Example 55, N-(4-methoxyphenyl)-2-[8-[(1-methylindazol-5-yl)amino]-1-oxo-2-isoquinolyl]acetamide]: the figures for the IC50 on Recombinant human DDR2 and on Recombinant human DDR1 were at least 1 µM and 0.01 to 0.1 µM, respectively.
Take `COc1cncc(NC(=O)Cn2ccc3cccc(Nc4ccc5c(cnn5C)c4)c3c2=O)c1` [Example 56, N-(5-methoxy-3-pyridyl)-2-[8-[(1-methylindazol-5-yl)amino]-1-oxo-2-isoquinolyl]acetamide]: the IC50 on Recombinant human DDR2 and at Recombinant human DDR1 was 0.01 to 0.1 µM in each case.
Regarding `Cn1ncc2cc(Nc3cccc4ccn(CC(=O)N[C@@H](C5CC5)C(F)(F)F)c(=O)c34)ccc21` [Example 57, N-[(1S)-1-cyclopropyl-2,2,2-trifluoro-ethyl]-2-[8-[(1-methylindazol-5-yl)amino]-1-oxo-2-isoquinolyl]acetamide], the IC50 was 0.01 to 0.1 µM at Recombinant human DDR2 and below 0.01 µM at Recombinant human DDR1.
Take `Cn1ncc2cc(Nc3cccc4ccn(CC(=O)Nc5ccc(C(F)(F)F)nc5)c(=O)c34)ccc21` [Example 59, 2-[8-[(1-methylindazol-5-yl)amino]-1-oxo-2-isoquinolyl]-N-[6-(trifluoromethyl)-3-pyridyl]acetamide]: the IC50 is 0.1 to 1 µM on Recombinant human DDR2 and 0.01 to 0.1 µM on Recombinant human DDR1.
For the compound `Cn1ncc2cc(Nc3cccc4ccn(CC(=O)N5CCC[C@H]5C(C)(C)O)c(=O)c34)ccc21` [Example 60, 2-[2-[(2S)-2-(1-hydroxy-1-methyl-ethyl)pyrrolidin-1-yl]-2-oxo-ethyl]-8-[(1-methylindazol-5-yl)amino]isoquinolin-1-one], the IC50 on Recombinant human DDR2 was at least 1 µM; at Recombinant human DDR1 it was 0.1 to 1 µM.
Turning to `Cn1ncc2cc(Nc3cccc4ccn(CC(=O)N5CCCC[C@H]5C(F)(F)F)c(=O)c34)ccc21` [Example 61, 8-[(1-methylindazol-5-yl)amino]-2-[2-oxo-2-[(2S)-2-(trifluoromethyl)-1-piperidyl]ethyl]isoquinolin-1-one], the values for the IC50 at Recombinant human DDR2 and at Recombinant human DDR1 were 0.01 to 0.1 µM and below 0.01 µM, respectively.
The matching figures for `COC(=O)c1cncc(NC(=O)Cn2ccc3cccc(Nc4ccc5c(cnn5C)c4)c3c2=O)c1` [Example 63]: 0.01 to 0.1 µM and 0.01 to 0.1 µM.
`Cc1noc(C)c1NC(=O)Cn1ccc2cccc(Nc3ccc4c(cnn4C)c3)c2c1=O` [Example 69, N-(3,5-dimethylisoxazol-4-yl)-2-[8-[(1-methylindazol-5-yl)amino]-1-oxo-2-isoquinolyl]acetamide]: the IC50 at Recombinant human DDR2 and at Recombinant human DDR1 was 0.1 to 1 µM in each case.
Take `COC(=O)C1CCN(C(=O)Cn2ccc3cccc(Nc4ccc5c(cnn5C)c4)c3c2=O)C1` (centres unmarked) [Example 73, methyl 1-[2-[8-[(1-methylindazol-5-yl)amino]-1-oxo2-isoquinolyl]acetyl]pyrrolidine-3-carboxylate]: the figures for the IC50 at Recombinant human DDR2 and at Recombinant human DDR1 were at least 1 µM and 0.1 to 1 µM, respectively.
The matching figures for `Cn1ncc2cc(Nc3cccc4ccn(CC(=O)Nc5ccon5)c(=O)c34)ccc21` [Example 74, N-isoxazol-3-yl-2-[8-[(1-methylindazol-5-yl)amino]-1-oxo-2-isoquinolyl]acetamide]: 0.1 to 1 µM and 0.01 to 0.1 µM.
